Measured values taken from PMC11033320, “Activation of p53 signaling and regression of breast and prostate carcinoma cells by spirooxindole-benzimidazole small molecules” (Frontiers in Pharmacology, 2024).

Assays:
SK-MEL-28 = test: NCI anticancer screening, Melanoma SK-MEL-28; type: cell-based; settings: Homo sapiens; SK-MEL-28, 10 μM; read-out: % Growth Inhibition (GI %)
Excerpt: (§1) The compound has been processed according to standard method NCI-60 Human Tumor Cell Lines Screen for organic compound at development therapeutic program (DTP). Requests for access to this national resource can be submitted online at: […]

HL-60(TB) = test: NCI anticancer screening, Leukemia HL-60(TB); type: cell-based; settings: Homo sapiens, read-out: % Growth Inhibition (GI %)
Excerpt: as §1

PC-3 cells = test: MTT assay anticancer activity, PC-3; type: cell-based; settings: Homo sapiens, PC-3, 5 µM, mean ± SEM, read-out: growth inhibition percentage of PC-3
Excerpt: MTT method was done as described above.

OVCAR-3 = test: NCI anticancer screening, Ovarian Cancer OVCAR-3; type: cell-based; settings: Homo sapiens; OVCAR-3, 10 μM; read-out: % Growth Inhibition (GI %)
Excerpt: as §1

T-47D = test: NCI anticancer screening, Breast Cancer T-47D; type: cell-based; settings: Homo sapiens, T47D, read-out: % Growth Inhibition (GI %)
Excerpt: as §1

MOLT-4 = test: NCI anticancer screening, Leukemia MOLT-4; type: cell-based; settings: Homo sapiens; MOLT-4, 10 μM; read-out: % Growth Inhibition (GI %)
Excerpt: as §1

U251 = test: NCI anticancer screening, CNS Cancer U251; type: cell-based; settings: Homo sapiens, U-251; U251, 10 μM; read-out: % Growth Inhibition (GI %)
Excerpt: as §1

UACC-62 = test: NCI anticancer screening, Melanoma UACC-62; type: cell-based; settings: Homo sapiens; UACC-62, 10 μM; read-out: % Growth Inhibition (GI %)
Excerpt: as §1

SK-MEL-2 = test: NCI anticancer screening, Melanoma SK-MEL-2; type: cell-based; settings: Homo sapiens; SK-MEL-2, 10 μM; read-out: % Growth Inhibition (GI %)
Excerpt: as §1

NCI-H460 = test: NCI anticancer screening, Non-Small Cell Lung Cancer NCI-H460; type: cell-based; settings: Homo sapiens; NCI-H460, 10 μM; read-out: % Growth Inhibition (GI %)
Excerpt: as §1

KM12 = test: NCI anticancer screening, Colon Cancer KM12; type: cell-based; settings: Homo sapiens; KM12, 10 μM; read-out: % Growth Inhibition (GI %)
Excerpt: as §1

M14 = test: NCI anticancer screening, Melanoma M14; type: cell-based; settings: Homo sapiens; M14, 10 μM; read-out: % Growth Inhibition (GI %)
Excerpt: as §1

HOP-62 = test: NCI anticancer screening, Non-Small Cell Lung Cancer HOP-62; type: cell-based; settings: Homo sapiens; HOP-62, 10 μM; read-out: % Growth Inhibition (GI %)
Excerpt: as §1

MDA-MB-468 = test: NCI anticancer screening, Breast Cancer MDA-MB-468; type: cell-based; settings: Homo sapiens, read-out: % Growth Inhibition (GI %)
Excerpt: as §1

NCI-H322M = test: NCI anticancer screening, Non-Small Cell Lung Cancer NCI-H322M; type: cell-based; settings: Homo sapiens, read-out: % Growth Inhibition (GI %)
Excerpt: as §1

MCF7 = test: NCI anticancer screening, Breast Cancer MCF7; type: cell-based; settings: Homo sapiens; MCF7, 10 μM; read-out: % Growth Inhibition (GI %)
Excerpt: as §1

K-562 = test: NCI anticancer screening, Leukemia K-562; type: cell-based; settings: Homo sapiens, K562; K-562, 10 μM; read-out: % Growth Inhibition (GI %)
Excerpt: as §1

CAKI-1 = test: NCI anticancer screening, Renal Cancer CAKI-1; type: cell-based; settings: Homo sapiens; CAKI-1, 10 μM; read-out: % Growth Inhibition (GI %)
Excerpt: as §1

MDA-MB 231 cells = settings: for inhibition: 5 µM
EKVX = test: NCI anticancer screening, Non-Small Cell Lung Cancer EKVX; type: cell-based; settings: Homo sapiens, read-out: % Growth Inhibition (GI %)
Excerpt: as §1

HCC-2998 = test: NCI anticancer screening, Colon Cancer HCC-2998; type: cell-based; settings: Homo sapiens; HCC-2998, 10 μM; read-out: % Growth Inhibition (GI %)
Excerpt: as §1

786-0 = test: NCI anticancer screening, Renal Cancer 786-0; type: cell-based; settings: Homo sapiens; 786-0, 10 μM; read-out: % Growth Inhibition (GI %)
Excerpt: as §1

NCI-H522 = test: NCI anticancer screening, Non-Small Cell Lung Cancer NCI-H522; type: cell-based; settings: Homo sapiens; NCI-H522, 10 μM; read-out: % Growth Inhibition (GI %)
Excerpt: as §1

SF-295 = test: NCI anticancer screening, CNS Cancer SF-295; type: cell-based; settings: Homo sapiens; SF-295, 10 μM; read-out: % Growth Inhibition (GI %)
Excerpt: as §1

SN12C = test: NCI anticancer screening, Renal Cancer SN12C; type: cell-based; settings: Homo sapiens, read-out: % Growth Inhibition (GI %)
Excerpt: as §1

CCRF-CEM = test: NCI anticancer screening, Leukemia CCRF-CEM; type: cell-based; settings: Homo sapiens, read-out: % Growth Inhibition (GI %)
Excerpt: as §1

SF-268 = test: NCI anticancer screening, CNS Cancer SF-268; type: cell-based; settings: Homo sapiens; SF-268, 10 μM; read-out: % Growth Inhibition (GI %)
Excerpt: as §1

TK-10 = test: NCI anticancer screening, Renal Cancer TK-10; type: cell-based; settings: Homo sapiens; TK-10, 10 μM; read-out: % Growth Inhibition (GI %)
Excerpt: as §1

SNB-19 = test: NCI anticancer screening, CNS Cancer SNB-19; type: cell-based; settings: Homo sapiens; SNB-19, 10 μM; read-out: % Growth Inhibition (GI %)
Excerpt: as §1

HOP-92 = test: NCI anticancer screening, Non-Small Cell Lung Cancer HOP-92; type: cell-based; settings: Homo sapiens; HOP-92, 10 μM; read-out: % Growth Inhibition (GI %)
Excerpt: as §1

HCT-15 = test: NCI anticancer screening, Colon Cancer HCT-15; type: cell-based; settings: Homo sapiens; HCT-15, 10 μM; read-out: % Growth Inhibition (GI %)
Excerpt: as §1

SW-620 = test: NCI anticancer screening, Colon Cancer SW-620; type: cell-based; settings: Homo sapiens; SW-620, 10 μM; read-out: % Growth Inhibition (GI %)
Excerpt: as §1

A549/ATCC = test: NCI anticancer screening, Non-Small Cell Lung Cancer A549/ATCC; type: cell-based; settings: Homo sapiens, read-out: % Growth Inhibition (GI %)
Excerpt: as §1

OVCAR-5 = test: NCI anticancer screening, Ovarian Cancer OVCAR-5; type: cell-based; settings: Homo sapiens; OVCAR-5, 10 μM; read-out: % Growth Inhibition (GI %)
Excerpt: as §1

SR = test: NCI anticancer screening, Leukemia SR; type: cell-based; settings: Homo sapiens, read-out: % Growth Inhibition (GI %)
Excerpt: as §1

BT-549 = test: NCI anticancer screening, Breast Cancer BT-549; type: cell-based; settings: Homo sapiens; BT-549, 10 μM; read-out: % Growth Inhibition (GI %)
Excerpt: as §1

SNB-75 = test: NCI anticancer screening, CNS Cancer SNB-75; type: cell-based; settings: Homo sapiens; SNB-75, 10 μM; read-out: % Growth Inhibition (GI %)
Excerpt: as §1

O=C(c1nc2ccccc2[nH]1)[C@H]1[C@H](c2ccc(Cl)cc2)C2CSCN2[C@]12C(=O)Nc1ccccc12 (stereo partly drawn) [Compound 6b, (3S,6′R)-6'-(1H-Benzo [d]imidazole-2-carbonyl)-7'-(4-chlorophenyl)-3′,6′,7′,7a′-tetrahydro-1′H-spiro [indoline-3.5′-pyrrolo [1,2-c]thiazol]-2-one]
inhibition at 10 µM (SK-MEL-28): 92.2%
inhibition at 10 µM (HL-60(TB)): 98.3%
inhibition at 5 µM (PC-3 cells): 51.9%
inhibition at 10 µM (OVCAR-3): 86.4%
inhibition at 10 µM (T-47D): 59.9%
inhibition at 10 µM (MOLT-4): 68.9%
inhibition at 10 µM (U251): 81.2%
inhibition at 10 µM (UACC-62): 73.9%
inhibition at 10 µM (SK-MEL-2): 110%
inhibition at 10 µM (NCI-H460): 74.3%
inhibition at 10 µM (KM12): 66.5%
inhibition at 10 µM (M14): 79.4%
inhibition at 10 µM (HOP-62): 91.7%
inhibition at 10 µM (MDA-MB-468): 89.4%
inhibition at 10 µM (NCI-H322M): 93.5%
inhibition at 10 µM (MCF7): 74.7%
inhibition at 10 µM (K-562): 82.3%
inhibition at 10 µM (CAKI-1): 68.3%
IC50 (MDA-MB 231 cells): 4.76 ± 0.265 µM
inhibition (MDA-MB 231 cells): 52.7 ± 2.94%
melting point: 210 to 212 °C
inhibition at 10 µM (EKVX): 80.7%
inhibition at 10 µM (HCC-2998): 92.1%
inhibition at 10 µM (786-0): 97.6%
inhibition at 10 µM (NCI-H522): 87.9%
inhibition at 10 µM (SF-295): 77.5%
inhibition at 10 µM (SN12C): 80.7%
inhibition at 10 µM (CCRF-CEM): 86.3%
inhibition at 10 µM (SF-268): 77.5%
inhibition at 10 µM (TK-10): 121%
inhibition at 10 µM (SNB-19): 77.7%
inhibition at 10 µM (HOP-92): 100%
inhibition at 10 µM (HCT-15): 76.6%
inhibition at 10 µM (SW-620): 77%
inhibition at 10 µM (A549/ATCC): 81.4%
inhibition at 10 µM (OVCAR-5): 92.5%
inhibition at 10 µM (SR): 65.9%
inhibition at 10 µM (BT-549): 97%
inhibition at 10 µM (SNB-75): 69.1%

O=C(c1nc2ccccc2[nH]1)[C@H]1[C@H](c2ccc(C(F)(F)F)cc2)C2CSCN2[C@]12C(=O)Nc1ccccc12 (stereo partly drawn) [Compound 6c, (3S,6′R)-6'-(1H-Benzo [d]imidazole-2-carbonyl)-7'-(4-(trifluoromethyl)phenyl)-3′,6′,7′,7a′-tetrahydro-1′H-spiro [indoline-3.5′-pyrrolo [1,2-c]thiazol]-2-one]
inhibition at 10 µM (SK-MEL-28): 97.7%
inhibition at 10 µM (HL-60(TB)): 108%
inhibition at 5 µM (PC-3 cells): 54.1 ± 1.35%
inhibition at 10 µM (OVCAR-3): 87.7%
inhibition at 10 µM (T-47D): 69.7%
inhibition at 10 µM (MOLT-4): 82.7%
inhibition at 10 µM (U251): 93.2%
inhibition at 10 µM (UACC-62): 77.5%
inhibition at 10 µM (SK-MEL-2): 108%
inhibition at 10 µM (NCI-H460): 66.8%
inhibition at 10 µM (KM12): 71.8%
inhibition at 10 µM (M14): 83.3%
inhibition at 10 µM (HOP-62): 89.5%
inhibition at 10 µM (MDA-MB-468): 91.6%
inhibition at 10 µM (NCI-H322M): 91.1%
inhibition at 10 µM (MCF7): 77.7%
inhibition at 10 µM (K-562): 83.1%
inhibition at 10 µM (CAKI-1): 78.6%
IC50 (MDA-MB 231 cells): 3.34 ± 0.21 µM
inhibition (MDA-MB 231 cells): 55.5 ± 2.5%
melting point: 185 to 187 °C
inhibition at 10 µM (EKVX): 87%
inhibition at 10 µM (HCC-2998): 99.6%
inhibition at 10 µM (786-0): 99.4%
inhibition at 10 µM (NCI-H522): 87.7%
inhibition at 10 µM (SF-295): 95.3%
inhibition at 10 µM (SN12C): 90.7%
inhibition at 10 µM (CCRF-CEM): 95%
inhibition at 10 µM (SF-268): 90.2%
inhibition at 10 µM (TK-10): 120%
inhibition at 10 µM (SNB-19): 84.9%
inhibition at 10 µM (HOP-92): 109%
inhibition at 10 µM (HCT-15): 88.9%
inhibition at 10 µM (SW-620): 84.1%
inhibition at 10 µM (A549/ATCC): 97.1%
inhibition at 10 µM (OVCAR-5): 96.1%
inhibition at 10 µM (SR): 85.6%
inhibition at 10 µM (BT-549): 107%
inhibition at 10 µM (SNB-75): 72.9%
